This is an account of results in patent US20230159538A1, “PYRROLIDINE-PYRAZOLES AS PYRUVATE KINASE ACTIVATORS” (Global Blood Therapeutics, Inc., priority 2020, published 2023).

The experiment addresses T1, Human pyruvate kinase R (PKR) (Homo sapiens, UniProt P30613).
T1 construct: Human pyruvate kinase R (PKR), residues 14-574; 6x-His (N, cleaved yes); 8x-Arg (N, cleaved yes); SUMO (N, cleaved yes); host or cells: E. coli
Description: Biochemical assay for activation of pyruvate kinase R (Kinase-Glo luminescence, ATP generation). The note with it: 0.1 nM PKR, 2 mM FBP, 0.3 mM ADP, 0.1 mM PEP. The essentials:
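E. coli-expressed human PKR, freed of its His-Arg-SUMO tag and purified by anion exchange and size exclusion, was tested for activation. Read-out was luminescent measurement of ATP generation with Kinase-Glo reagent.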
A general note: In Kinase-Glo more light means more ATP remaining.

SMILES strings stand for the structures.

T1 sequence (P30613 14-574): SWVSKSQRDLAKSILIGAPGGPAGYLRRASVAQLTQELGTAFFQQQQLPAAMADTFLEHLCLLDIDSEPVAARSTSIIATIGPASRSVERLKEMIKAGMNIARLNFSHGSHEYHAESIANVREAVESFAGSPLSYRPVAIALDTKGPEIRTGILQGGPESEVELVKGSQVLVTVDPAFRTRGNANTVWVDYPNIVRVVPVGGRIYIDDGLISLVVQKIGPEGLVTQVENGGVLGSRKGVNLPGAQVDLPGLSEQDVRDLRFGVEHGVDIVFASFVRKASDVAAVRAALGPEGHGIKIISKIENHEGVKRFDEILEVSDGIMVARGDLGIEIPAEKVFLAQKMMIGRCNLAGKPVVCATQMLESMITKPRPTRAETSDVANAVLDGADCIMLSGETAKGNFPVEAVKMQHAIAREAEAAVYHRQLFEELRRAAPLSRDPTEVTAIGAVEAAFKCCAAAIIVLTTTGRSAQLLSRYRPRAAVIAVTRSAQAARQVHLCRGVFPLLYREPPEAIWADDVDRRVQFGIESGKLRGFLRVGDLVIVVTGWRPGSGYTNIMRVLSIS

For the molecule `N[C@@H](C(=O)N1Cc2cn(S(=O)(=O)c3ccc4c(c3)OCCO4)nc2C1)c1ccccc1F` [Compound 58, (2R)-2-amino-1-[2-(2,3-dihydro-1,4-benzodioxine-6-sulfonyl)-2H,4H,5H,6H-pyrrolo[3,4-c]pyrazol-5-yl]-2-(2-fluorophenyl)ethan-1-one], the activity was half-maximal at 25 nM (AC50). To `Cc1ccccc1[C@@H](N)C(=O)N1Cc2cn(S(=O)(=O)c3ccc4ncsc4c3)nc2C1` [Compound 59, (2R)-2-amino-1-[2-(1,3-benzothiazole-6-sulfonyl)-2H,4H,5H,6H-pyrrolo[3,4-c]pyrazol-5-yl]-2-(2-methylphenyl)ethan-1-one] belongs 48 nM. To `C[C@](N)(C(=O)N1Cc2cn(S(=O)(=O)c3ccc4ncsc4c3)nc2C1)c1ccccc1` [Compound 60, (2R)-2-amino-1-[2-(1,3-benzothiazole-6-sulfonyl)-2H,4H,5H,6H-pyrrolo[3,4-c]pyrazol-5-yl]-2-phenylpropan-1-one] belongs 77 nM. For the molecule `N[C@@H](C(=O)N1Cc2cn(S(=O)(=O)c3ccc4ncsc4c3)nc2C1)c1ccccc1Cl` [Compound 63, (2R)-2-amino-1-[2-(1,3-benzothiazole-6-sulfonyl)-2H,4H,5H,6H-pyrrolo[3,4-c]pyrazol-5-yl]-2-(2-chlorophenyl)ethan-1-one], the activity was half-maximal at 8.3 nM (AC50). Compared with the last molecule, the AC50 is about 9.3-fold lower. To `N[C@@H](C(=O)N1Cc2cn(S(=O)(=O)c3ccc4occc4c3)nc2C1)c1ccccc1F` [Compound 64, (2R)-2-amino-1-[2-(1-benzofuran-5-sulfonyl)-2H,4H,5H,6H-pyrrolo[3,4-c]pyrazol-5-yl]-2-(2-fluorophenyl)ethan-1-one] belongs 3.4 nM.

On to `O=C([C@H](O)c1ccccc1Cl)N1Cc2cn(S(=O)(=O)c3ccc4ncsc4c3)nc2C1` [Compound 65, (2R)-1-[2-(1,3-benzothiazole-6-sulfonyl)-2H,4H,5H,6H-pyrrolo [3,4-c]pyrazol-5-yl]-2-(2-chlorophenyl)-2-hydroxyethan-1-one], for which the AC50 (as a rule, the midpoint of the concentration-response curve, whichever way the signal moves) came to 6.2 nM. To `O=C([C@H](O)c1ccccc1Cl)N1Cc2cn(S(=O)(=O)c3ccc4cn[nH]c4c3)nc2C1` [Compound 67, (2R)-2-(2-chlorophenyl)-2-hydroxy-1-[2-(1H-indazole-6-sulfonyl)-2H,4H,5H,6H-pyrrolo[3,4-c]pyrazol-5-yl]ethan-1-one] belongs 29 nM; to `O=C([C@H](O)c1ccccc1F)N1Cc2cn(S(=O)(=O)c3ccc(OC(F)F)cc3)nc2C1` [Compound 72, (2R)-1-[2-[4-(difluoromethoxy)benzenesulfonyl]-4H,6H-pyrrolo[3,4-c]pyrazol-5-yl]-2-(2-fluorophenyl)-2-hydroxyethanone], 6 nM; to `O=CN[C@H](C(=O)N1Cc2cn(S(=O)(=O)c3ccc(OC(F)F)cc3)nc2C1)c1ccccc1` [Compound 73, N-[(1S)-2-{2-[4-(difluoromethoxy)benzenesulfonyl]-2H,4H,5H,6H-pyrrolo[3,4-c]pyrazol-5-yl}-2-oxo-1-phenylethyl]formamide], 13 nM. To `O=C(N1Cc2cn(S(=O)(=O)c3ccc(OC(F)F)cc3)nc2C1)C1(c2ncccc2Cl)COC1` [Compound 75, 3-chloro-2-(3-{2-[4-(difluoromethoxy)benzenesulfonyl]-2H,4H,5H,6H-pyrrolo[3,4-c]pyrazole-5-carbonyl}oxetan-3-yl)pyridine] belongs 4.4 nM; to `O=C([C@H](CO)c1ccccc1)N1Cc2cn(S(=O)(=O)c3cnc4c(c3)OCCO4)nc2C1` [Compound 76, (2S)-1-(2-{2H,3H-[1,4]dioxino[2,3-b]pyridine-7-sulfonyl}-2H,4H,5H,6H-pyrrolo[3,4-c]pyrazol-5-yl)-3-hydroxy-2-phenylpropan-1-one], 6.9 nM. For the molecule `COc1ccc(S(=O)(=O)n2cc3c(n2)CN(C(=O)[C@H](CO)c2ccccc2)C3)cn1` [Compound 77, (2S)-3-hydroxy-1-{2-[(6-methoxypyridin-3-yl)sulfonyl]-2H,4H,5H,6H-pyrrolo[3,4-c]pyrazol-5-yl}-2-phenylpropan-1-one], the AC50 is 8.3 nM. To `O=CN[C@@H](C(=O)N1Cc2cn(S(=O)(=O)c3ccc(OC(F)F)cc3)nc2C1)c1ccccc1F` [Compound 78, N-[(1R)-2-{2-[4-(difluoromethoxy)benzenesulfonyl]-2H,4H,5H,6H-pyrrolo[3,4-c]pyrazol-5-yl}-1-(2-fluorophenyl)-2-oxoethyl]formamide] belongs 4.7 nM; to `O=C([C@H](CO)c1ccccc1F)N1Cc2cn(S(=O)(=O)c3ccc4ncsc4c3)nc2C1` [Compound 79, (2S)-1-[2-(1,3-benzothiazole-6-sulfonyl)-2H,4H,5H,6H-pyrrolo[3,4-c]pyrazol-5-yl]-2-(2-fluorophenyl)-3-hydroxypropan-1-one], 4.9 nM; to `O=C([C@H](CO)c1ccccc1F)N1Cc2cn(S(=O)(=O)c3cnc4c(c3)OCCO4)nc2C1` [Compound 80, (2S)-1-(2-{2H,3H-[1,4]dioxino[2,3-b]pyridine-7-sulfonyl}-2H,4H,5H,6H pyrrolo[3,4-c]pyrazol-5-yl)-2-(2-fluorophenyl)-3-hydroxypropan-1-one], 2.1 nM. To `O=CN[C@@H](C(=O)N1Cc2cn(S(=O)(=O)c3ccc4ncsc4c3)nc2C1)c1ccccc1Cl` [Compound 81, N-[(1R)-2-[2-(1,3-benzothiazole-6-sulfonyl)-2H,4H,5H,6H-pyrrolo[3,4-c]pyrazol-5-yl]-1-(2-chlorophenyl)-2-oxoethyl]formamide] belongs 3.8 nM. To `O=C([C@H](CO)c1ccccc1)N1Cc2cn(S(=O)(=O)c3ccc4ncccc4c3)nc2C1` [Compound 82, (2S)-3-hydroxy-2-phenyl-1-[2-(quinoline-6-sulfonyl)-2H,4H,5H,6H-pyrrolo[3,4-c]pyrazol-5-yl]propan-1-one] belongs 5 nM; to `O=C([C@H](CO)c1ccccc1)N1Cc2cn(S(=O)(=O)c3cccc(OC(F)F)c3)nc2C1` [Compound 83, (2S)-1-{2-[3-(difluoromethoxy)benzenesulfonyl]-2H,4H,5H,6H-pyrrolo[3,4-c]pyrazol-5-yl}-3-hydroxy-2-phenylpropan-1-one], 7.9 nM; to `O=C([C@H](CO)c1ccccc1F)N1Cc2cn(S(=O)(=O)c3ccc4occc4c3)nc2C1` [Compound 84, (2S)-1-[2-(1-benzofuran-5-sulfonyl)-2H,4H,5H,6H-pyrrolo[3,4-c]pyrazol-5-yl]-2-(2-fluorophenyl)-3-hydroxypropan-1-one], 4.5 nM.

Consider `O=C([C@H](CO)c1ccccc1F)N1Cc2cn(S(=O)(=O)c3ccc(OC(F)F)nc3)nc2C1` [Compound 85, (2S)-1-(2-[6-(difluoromethoxy)pyridin-3-yl]sulfonyl-2H,4H,5H,6H-pyrrolo[3,4-c]pyrazol-5-yl)-2-(2-fluorophenyl)-3-hydroxypropan-1-one], for which the AC50 turned out to be 6.8 nM. To `O=C([C@H](CO)c1ccccc1Cl)N1Cc2cn(S(=O)(=O)c3cnc4occc4c3)nc2C1` [Compound 86, (2S)-2-(2-chlorophenyl)-1-(2-{furo[2,3-b]pyridine-5-sulfonyl}-2H,4H,5H,6H-pyrrolo[3,4-c]pyrazol-5-yl)-3-hydroxypropan-1-one] belongs 1.8 nM; to `COc1ccc(S(=O)(=O)n2cc3c(n2)CN(C(=O)[C@H](CO)c2ccccc2F)C3)cc1` [Compound 88, (2S)-2-(2-fluorophenyl)-3-hydroxy-1-[2-(4-methoxybenzenesulfonyl)-2H,4H,5H,6H-pyrrolo[3,4-c]pyrazol-5-yl]propan-1-one], 3 nM.
